Laboratory results taken from doi:10.1101/2021.06.18.448987v1 (biorxiv, 2021).
Where two headings read alike, the source gives them in different places.

What was measured:
[1] = target: T1, AnaGlgC (Nostoc sp. PCC 7120 = FACHB-418, UniProt P30521); test: biochemical
T1 sequence (P30521 1-429): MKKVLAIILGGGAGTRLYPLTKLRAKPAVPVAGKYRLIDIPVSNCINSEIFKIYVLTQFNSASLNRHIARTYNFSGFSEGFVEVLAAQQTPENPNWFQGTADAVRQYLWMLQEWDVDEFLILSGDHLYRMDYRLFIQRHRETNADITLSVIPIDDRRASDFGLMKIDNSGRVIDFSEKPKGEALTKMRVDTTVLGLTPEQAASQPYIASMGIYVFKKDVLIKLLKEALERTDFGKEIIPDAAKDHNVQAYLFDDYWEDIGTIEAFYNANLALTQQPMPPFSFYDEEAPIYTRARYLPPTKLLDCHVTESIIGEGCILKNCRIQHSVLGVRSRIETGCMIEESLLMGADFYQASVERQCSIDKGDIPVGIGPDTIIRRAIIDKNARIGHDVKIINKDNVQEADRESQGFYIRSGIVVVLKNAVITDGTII

[2] = target: T1, AnaGlgC; test: Malachite Green Pi release with inorganic pyrophosphatase, ADP-Glc synthesis; type: biochemical
[3] = system: flMelGlgC; details: read-out: S0.5, no effector, 10 mM MgCl2, MOPS pH 8.0, 37 °C
[4] = system: inMelGlgC; details: read-out: S0.5, no effector, 10 mM MgCl2, MOPS pH 8.0, 37 °C
[5] = target: flMelGlgC; test: Malachite Green Pi release with inorganic pyrophosphatase, ADP-Glc synthesis; type: biochemical, Candidatus Melainabacteria bacterium GWF2_37_15; details: read-out: A0.5; allosteric activator; 10 mM MgCl2; MOPS pH 8.0; 37 °C
[6] = target: inMelGlgC; test: as above; type: biochemical, Candidatus Melainabacteria bacterium MEL.A1; details: read-out: A0.5; allosteric activator; 10 mM MgCl2; MOPS pH 8.0; 37 °C
[7] = system: inMelGlgC; test: activity assay, ADP-Glc synthesis; type: biochemical, Candidatus Melainabacteria bacterium MEL.A1; details: read-out: I0.5; inhibitor; 10 mM MgCl2; MOPS pH 8.0; 37 °C
[8] = system: flMelGlgC; test: activity assay, ADP-Glc synthesis; type: biochemical, Candidatus Melainabacteria bacterium GWF2_37_15; details: read-out: I0.5; inhibitor; 10 mM MgCl2; MOPS pH 8.0; 37 °C
[9] = target: T1, AnaGlgC; test: coupled spectrophotometric assay; type: biochemical
[10] = substrate: Nc1ncnc2c1ncn2[C@@H]1O[C@H](COP(=O)(O)OP(=O)(O)OP(=O)(O)O)[C@@H](O)[C@H]1O; test: purified protein; details: no effector, saturating Glc-1P, 10 mM MgCl2, MOPS pH 8.0, 37 °C
[11] = substrate: O=P(O)(O)O[C@H]1O[C@H](CO)[C@@H](O)[C@H](O)[C@H]1O; test: purified protein; details: no effector, saturating ATP, 10 mM MgCl2, MOPS pH 8.0, 37 °C
[12] = read-out: A0.5, allosteric activator, 10 mM MgCl2, MOPS pH 8.0, 37 °C

**Q.** Which results are given for `O=C(O)[C@H](O)COP(=O)(O)O` [3-PGA]?
**A.** EC50 [1]: 190 ± 90 µM; EC50 [2]: 200 µM

**Q.** With `O=P(O)(O)O[C@H]1O[C@H](CO)[C@@H](O)[C@H](O)[C@H]1O` [Glc-1P] as the molecule, how does the Km ([3]; saturating ATP) read?
**A.** 2100 ± 200 µM

**Q.** What about the Km ([4]; saturating ATP) of the same molecule?
**A.** 320 ± 30 µM

**Q.** For `O=P(O)(O)OC[C@H]1OC(O)[C@H](O)[C@@H](O)[C@@H]1O` (stereo partly shown) [Glc-6P], which EC50 [5] is on record?
**A.** ~300 µM

**Q.** And the EC50 [6]?
**A.** ~300 µM

**Q.** What about the EC50 [2, 12] of the same molecule?
**A.** 1450 ± 160 µM

**Q.** Which results are given for `Nc1ncnc2c1ncn2[C@@H]1O[C@H](COP(=O)(O)OP(=O)(O)OP(=O)(O)O)[C@@H](O)[C@H]1O` [ATP]?
**A.** Km ([3]; saturating Glc-1P): 340 ± 50 µM; Km ([4]; saturating Glc-1P): 250 ± 10 µM

**Q.** Which EC50 [5] does the source give for `O=P(O)(O)OC[C@H]1OC(O)(CO)[C@@H](O)[C@@H]1O` (stereo partly shown) [Fru-6P] here?
**A.** 1700 ± 100 µM

**Q.** What about the EC50 [6] of the same molecule?
**A.** 440 ± 50 µM

**Q.** What about the EC50 [2, 12] of the same molecule?
**A.** 900 ± 100 µM

**Q.** Which results are given for `Nc1ncnc2c1ncn2[C@@H]1O[C@H](COP(=O)(O)OP(=O)(O)O)[C@@H](O)[C@H]1O` [ADP]?
**A.** IC50 [7]: 2300 ± 900 µM; IC50 [8]: 1440 ± 80 µM

**Q.** How did the IC50 [9] turn out when `O=P(O)(O)O` [Pi] was run?
**A.** 90 µM

**Q.** Which results are given for `O=P(O)(O)OC[C@H]1OC(O)[C@@H](O)[C@@H](O)[C@@H]1O` (stereo partly shown) [Man-6P]?
**A.** EC50 [5]: 450 ± 40 µM; EC50 [6]: 520 ± 20 µM

B1: AnaGlgC (Nostoc sp. PCC 7120 = FACHB-418) (protein)
chain: T1 sequence (P30521 1-429)
**Q.** For B1, which K0.5 [10] is on record?
**A.** 0.40 ± 0.04 mM

**Q.** And the K0.5 [11]?
**A.** 0.08 ± 0.02 mM
